Source: ChEMBL document CHEMBL1799932, “Antimalarial pyrido[1,2-a]benzimidazoles” (J Med Chem, 2011)

Key:
[1] = tested on: Rattus norvegicus; assay: AUC (0 to tlast) in fasted Sprague-Dawley rat assessed as 1-(2-Ethylaminoethylamino)-3-[4-(trifluoromethyl)phenyl]- pyrido[1,2-a]benzimidazole-4-carbonitrile level at 5 mg/kg, iv after 48 hrs by LC-MS analysis; format: ADME, organism-based, Plasma; parameters: time < 48 hr, dose 5 mg/kg, route intravenous; conditions: in vivo
[2] = Metabolic stability in mouse liver microsomes assessed as intrinsic clearance per mg protein after 60 mins by LC-MS analysis; format: ADME, Microsome
[3] = tested on: Rattus norvegicus; assay: Oral bioavailability in fasted Sprague-Dawley rat assessed as 1-(2-Diethylaminoethylamino)-3-[4-(trifluoromethyl)phenyl]-pyrido[1,2-a]benzimidazole-4-carbonitrile at 20 mg/kg, po after 48 hrs by LC-MS analysis; format: ADME, organism-based; conditions: in vivo
[4] = tested on: Plasmodium berghei; assay: Antimalarial activity against GFP-transfected Plasmodium berghei strain ANKA infected in NMRI mouse assessed as reduction in parasitemia at 25 mg/kg, po administered as single dose measured on day 2 by FACS analysis; format: functional; parameters: scale not given: the % may be the effect or the level left
[5] = Metabolic stability in rat liver microsomes assessed as degradation half life after 60 mins by LC-MS analysis; format: ADME, Microsome
[6] = tested on: Rattus norvegicus; assay: Apparent half life in fasted Sprague-Dawley rat assessed as 1-(2-Diethylaminoethylamino)-3-[4-(trifluoromethyl)phenyl]-pyrido[1,2-a]benzimidazole-4-carbonitrile at 5 mg/kg, iv after 48 hrs by LC-MS analysis; format: ADME, organism-based; parameters: dose 5 mg/kg, route intravenous; conditions: in vivo
[7] = tested on: Plasmodium berghei; assay: Antimalarial activity against GFP-transfected Plasmodium berghei strain ANKA infected in NMRI mouse assessed as increase in median survival time at 50 mg/kg/day, ip administered for 4 days measured up to 30 days post infection (reference value: 5 to 7 days); format: functional; conditions: route intraperitoneal
[8] = tested on: Rattus norvegicus; assay: Cmax in fasted Sprague-Dawley rat assessed as 1-(2-Diethylaminoethylamino)-3-[4-(trifluoromethyl)phenyl]-pyrido[1,2-a]benzimidazole-4-carbonitrile at 20 mg/kg, po after 48 hrs by LC-MS analysis; format: ADME, organism-based; parameters: dose 20 mg/kg, route oral; conditions: in vivo
[9] = tested on: Rattus norvegicus; assay: Apparent volume of distribution in fasted Sprague-Dawley rat assessed as 1-(2-Diethylaminoethylamino)-3-[4-(trifluoromethyl)phenyl]-pyrido[1,2-a]benzimidazole-4-carbonitrile at 5 mg/kg, iv after 48 hrs by LC-MS analysis; format: ADME, organism-based; parameters: dose 5 mg/kg, route intravenous; conditions: in vivo
[10] = tested on: Plasmodium berghei; assay: Antimalarial activity against GFP-transfected Plasmodium berghei strain ANKA infected in NMRI mouse assessed as reduction in parasitemia at 50 mg/kg, po administered as single dose measured on day 5 by FACS analysis; format: functional; parameters: scale not given: the % may be the effect or the level left
[11] = tested on: Rattus norvegicus; assay: Drug excretion in fasted Sprague-Dawley rat urine assessed as 1-(2-Ethylaminoethylamino)-3-[4-(trifluoromethyl)phenyl]- pyrido[1,2-a]benzimidazole-4-carbonitrile level at 5 mg/kg, iv after 48 hrs by LC-MS analysis; format: ADME, organism-based; parameters: dose 5 mg/kg, route intravenous; conditions: in vivo
[12] = tested on: Rattus norvegicus; assay: Drug excretion in fasted Sprague-Dawley rat urine assessed as 1-(2-Ethylaminoethylamino)-3-[4-(trifluoromethyl)phenyl]- pyrido[1,2-a]benzimidazole-4-carbonitrile level at 20 mg/kg, po after 48 hrs by LC-MS analysis; format: ADME, organism-based; parameters: dose 20 mg/kg, route oral; conditions: in vivo
[13] = Metabolic stability in human liver microsomes assessed as intrinsic clearance per mg protein after 60 mins by LC-MS analysis; format: ADME, Microsome
[14] = tested on: Rattus norvegicus; assay: Cmax in fasted Sprague-Dawley rat assessed as 1-(2-Ethylaminoethylamino)-3-[4-(trifluoromethyl)phenyl]- pyrido[1,2-a]benzimidazole-4-carbonitrile level at 5 mg/kg, iv after 48 hrs by LC-MS analysis; format: ADME, organism-based; parameters: dose 5 mg/kg, route intravenous; conditions: in vivo
[15] = Metabolic stability in mouse liver microsomes assessed as degradation half life after 60 mins by LC-MS analysis; format: ADME, Microsome
[16] = tested on: Plasmodium berghei; assay: Antimalarial activity against GFP-transfected Plasmodium berghei strain ANKA infected in NMRI mouse assessed as reduction in parasitemia at 50 mg/kg, po administered as single dose measured on day 3 by FACS analysis; format: functional; parameters: scale not given: the % may be the effect or the level left
[17] = tested on: Plasmodium berghei; assay: Antimalarial activity against GFP-transfected Plasmodium berghei strain ANKA infected in NMRI mouse assessed as reduction in parasitemia at 25 mg/kg, po administered as single dose measured on day 3 by FACS analysis; format: functional; parameters: scale not given: the % may be the effect or the level left
[18] = tested on: Plasmodium berghei; assay: Antimalarial activity against GFP-transfected Plasmodium berghei strain ANKA infected in NMRI mouse assessed as increase in median survival time at 100 mg/kg/day, po administered for 4 days measured up to 30 days post infection (reference value: 5 to 7 days); format: functional
[19] = tested on: Rattus norvegicus; assay: Apparent half life in fasted Sprague-Dawley rat assessed as 1-(2-Diethylaminoethylamino)-3-[4-(trifluoromethyl)phenyl]-pyrido[1,2-a]benzimidazole-4-carbonitrile at 20 mg/kg, po after 48 hrs by LC-MS analysis; format: ADME, organism-based; parameters: dose 20 mg/kg, route oral; conditions: in vivo
[20] = tested on: Plasmodium berghei; assay: Antimalarial activity against GFP-transfected Plasmodium berghei strain ANKA infected in NMRI mouse assessed as reduction in parasitemia at 50 mg/kg/day, ip administered for 4 consecutive days measured 24 hrs after last treatment by FACS analysis relative to control; format: functional; parameters: scale not given: the % may be the effect or the level left; conditions: route intraperitoneal
[21] = tested on: Rattus norvegicus; assay: Cmax in fasted Sprague-Dawley rat assessed as 1-(2-Ethylaminoethylamino)-3-[4-(trifluoromethyl)phenyl]- pyrido[1,2-a]benzimidazole-4-carbonitrile level at 20 mg/kg, po after 48 hrs by LC-MS analysis; format: ADME, organism-based; parameters: dose 20 mg/kg, route oral; conditions: in vivo
[22] = tested on: Plasma; assay: Plasma protein binding in human assessed as 1-(2-Diethylaminoethylamino)-3-[4-(trifluoromethyl)phenyl]-pyrido[1,2-a]benzimidazole-4-carbonitrile at 5 mg/kg, iv after 48 hrs by LC-MS analysis; format: ADME, organism-based; parameters: dose 5 mg/kg, route intravenous; conditions: in vivo
[23] = tested on: Rattus norvegicus; assay: Tmax in fasted Sprague-Dawley rat assessed as 1-(2-Diethylaminoethylamino)-3-[4-(trifluoromethyl)phenyl]-pyrido[1,2-a]benzimidazole-4-carbonitrile at 20 mg/kg, po after 48 hrs by LC-MS analysis; format: ADME, organism-based; parameters: dose 20 mg/kg, route oral; conditions: in vivo
[24] = tested on: Rattus norvegicus; assay: AUC (0 to tlast) in fasted Sprague-Dawley rat assessed as 1-(2-Diethylaminoethylamino)-3-[4-(trifluoromethyl)phenyl]-pyrido[1,2-a]benzimidazole-4-carbonitrile at 20 mg/kg, po after 48 hrs by LC-MS analysis; format: ADME, organism-based, Plasma; parameters: time < 48 hr, dose 20 mg/kg, route oral; conditions: in vivo
[25] = tested on: Plasmodium berghei; assay: Antimalarial activity against GFP-transfected Plasmodium berghei strain ANKA infected in NMRI mouse assessed as reduction in parasitemia at 100 mg/kg/day, po administered for 4 consecutive days measured 24 hrs after last treatment by FACS analysis relative to control; format: functional; parameters: scale not given: the % may be the effect or the level left
[26] = tested on: Rattus norvegicus; assay: Tmax in fasted Sprague-Dawley rat assessed as 1-(2-Ethylaminoethylamino)-3-[4-(trifluoromethyl)phenyl]- pyrido[1,2-a]benzimidazole-4-carbonitrile level at 5 mg/kg, iv after 48 hrs by LC-MS analysis; format: ADME, organism-based; parameters: dose 5 mg/kg, route intravenous; conditions: in vivo
[27] = tested on: Rattus norvegicus; assay: Tmax in fasted Sprague-Dawley rat assessed as 1-(2-Ethylaminoethylamino)-3-[4-(trifluoromethyl)phenyl]- pyrido[1,2-a]benzimidazole-4-carbonitrile level at 20 mg/kg, po after 48 hrs by LC-MS analysis; format: ADME, organism-based; parameters: dose 20 mg/kg, route oral; conditions: in vivo
[28] = tested on: Plasmodium berghei; assay: Antimalarial activity against GFP-transfected Plasmodium berghei strain ANKA infected in NMRI mouse assessed as increase in mean survival time at 25 mg/kg, po administered as single dose (reference value: 5 days )
[29] = tested on: Rattus norvegicus; assay: Drug excretion in fasted Sprague-Dawley rat urine assessed as 1-(2-Diethylaminoethylamino)-3-[4-(trifluoromethyl)phenyl]-pyrido[1,2-a]benzimidazole-4-carbonitrile at 20 mg/kg, po after 48 hrs by LC-MS analysis; format: ADME, organism-based; parameters: dose 20 mg/kg, route oral; conditions: in vivo
[30] = tested on: Plasmodium falciparum
Description: Antimalarial activity against multidrug-resistant Plasmodium falciparum K1 infected in human red blood cells assessed as 3H-hypoxanthine incorporation after 48 hrs by liquid scintillation counting

[31] = tested on: Plasmodium berghei; assay: Antimalarial activity against GFP-transfected Plasmodium berghei strain ANKA infected in NMRI mouse assessed as reduction in parasitemia at 50 mg/kg, po administered as single dose measured on day 2 by FACS analysis; format: functional; parameters: scale not given: the % may be the effect or the level left

With `CCN(CC)CCNc1cc(-c2ccc(C(F)(F)F)cc2)c(C#N)c2nc3ccccc3n12.Cl.Cl` the AUClast [1] was 666 µM·min, the microsomal CLint [2] was 71.8 µL/min/mg and the F [3] was greater than 22%. For the same compound, the Activity [4] was 13.07%, the half-life [5] was 0.413 h and the “t1/2(app)” value [6] was 7.3 h. For the same compound, the MSD [7] was 10 days, the Cmax [8] was 380 nM and the Vz [9] was 18.9 L/kg. For the same compound, the Activity [10] was 78.22%, the Activity [11] was 0.08% and the Activity [12] was 0.05%. It also gave a microsomal CLint [13] of 127 µL/min/mg, a Cmax [14] of 540 nM and a half-life [15] of 0.402 h. It also gave an Activity [16] of 29.76%, an Activity [17] of 24.38% and an MSD [18] of 16 days. The “t1/2(app)” value [19] was 6.4 h, the Activity [20] was 91.9% and the Cmax [21] was 920 nM. For the same compound, the PPB [22] was 96.7%, the Tmax [23] was 4.13 h and the AUClast [24] was 290 µM·min. The Activity [25] was 96.2%, the Tmax [26] was 10.7 h and the Tmax [27] was 20 h. The MSD [28] was 8 days, the Activity [29] was 0.05% and the IC50 [30] was 80 nM. It also gave an Activity [31] of 5.15%.
